The target in this assay is T1, Cav3.2 channel (Homo sapiens, UniProt O95180).
T1 construct: expressed in transfected cells; host or cells: HEK-293, tetracycline inducible expression system (Invitrogen)
In words: Whole-cell patch clamp of T-type Cav3.2 channel expressed in HEK293 cells. As to conditions: for IC50: Table 1, tested at at least 4 concentrations, read-out: IC50. Format: cell-based. On the procedure: Cav3.1, Cav3.2 or Cav3.3 channels were expressed in human embryonic kidney (HEK)-293 cells using a tetracycline inducible expression system (Invitrogen). Cells were maintained in 25 cm^2 tissue culture flasks at 37° C., 5% CO2, and 100% relative humidity in D-MEM/F12 (Dulbecco's Modified Eagle Medium/Nutrient Mixture F-12; Gibco) supplemented with fetal bovine serum (FBS, 10% v/v), sodium pyruvate (0.5 mM, Gibco), penicillin-streptomycin (100 U/mL, 100 μg/mL) and Geneticin® Selective antibiotic (G418; 0.5 mg/mL). Cells were detached from the flask base using a non-enzymatic cell dissociation solution (Cellstripper, Corning), removed and re-seeded on to poly-D-lysine coated glass coverslips in 35 mm dishes. Cells in dishes were further supplemented with G418 at a final concentration of 1 mg/mL and after 24 hours, expression of Cav3.2 was induced with 1 μg/mL tetracycline. The medium for the HEK-293 cells was composed of D-MEM/F-12 (Dulbecco's Modified Eagle Medium/Nutrient Mixture F-12; Gibco, #11330-032) and 15 mM HEPES buffer, with L-glutamine and pyridoxine hydrochloride. It was supplemented with FBS (Fetal Bovine Serum), P/S (Penicillin/Streptomycin) (Gibco, #15140-122), and sodium pyruvate 100 mM (Gibco, #11360-070). At least 24 hours before the assay, expression of the alpha-2-delta-1 and beta2a subunits of the calcium channel were induced with 1 ug/mL tetracycline.
Whole-cell voltage clamp recordings were performed on rat or mouse DRG neurons within 2 days after acutely dissociation or cultured HEK293 cells expressing T-type channels (encoded by Cav3.1, Cav3.2 or Cav3.3 channels). All experiments were performed at room temperature (around 21° C.). Whole-cell currents were recorded using a MultiClamp 700B amplifier and analyzed offline with pCLAMP10.4 software (Molecular Devices, LLC, Sunnyvale Calif., USA). To record calcium currents in DRG and HEK293 cells, the external solution was composed (in mM) of 115 choline-Cl, 30 TEA-Cl, 2 CaCl2, 10 glucose and 10 HEPES (pH 7.3-7.4 adjusted with TEA-OH; osmolality verified as 295 mOsm/kg). The internal solution was composed (in mM) of 125 CsCl, 10 HEPES (acid), 10 EGTA (ethylene glycol tetraacetic acid), 1 CaCl2, 1 MgCl2, 4 MgATP and 0.3 MgGTP (pH 7.3-7.4 adjusted with CsOH; osmolality verified as 295 mOsm/kg). Since the sodium ions were absent in the external solution, tetrodoctoxin was not needed. Calcium currents were recorded at a holding potential of −100 mV and then depolarized to −30 mV for 100 ms to activate either Cav3.1, Cav3.2, or Cav3.3 expressed in HEK cells. An interpulse interval of 10 seconds allowed the channel recovery from inactivation, and achieved stable current recordings. To record sodium (Na^+) currents in DRG neurons, the external solution used the modified Krebs solution specified above. The internal solution was composed (in mM) of 120 CsF, 10 HEPES, 11 EGTA, 1 CaCl2, 1 MgCl2, 10 TEA-Cl, 4 MgATP and 0.3 MgGTP (pH 7.3-7.4 adjusted with CsOH). […] To record potassium currents in DRG neurons, the external solution used the modified Kreb's solution specified above. The internal solution was composed (in mM) of 65 KCl, 80 KF, 5 KOH, 10 EGTA, 2 MgATP (pH 7.3-7.4 adjusted with KOH). Recording electrodes were fabricated using a P-87 puller (Sutter Instrument Co., Novato, Calif., USA). The tip of resistance was 3-4 MQ in bath and the series resistance was less than 10 MΩ after whole cell configuration. All reagents were purchased from Sigma unless specified otherwise. Test compounds were usually applied via a rapid solution exchange system with 8 fine polyplastic tubings (100 μm, OD) glued in a holder in parallel and located closely to the recorded cells. […]

[1] abbreviates: HEK293, Table 1 primary screening.
[2] abbreviates: HEK293, Table 1 primary screening, 3 μM as indicated in cell, read-out: % inhibition at 3 μM.

Read-outs that look alike come from different tables or passages of the source.

As usually defined, the IC50 is the concentration that gives 50% inhibition. The inhibition is the percentage by which the read-out fell short of the control.

T1 sequence (O95180 whole entry): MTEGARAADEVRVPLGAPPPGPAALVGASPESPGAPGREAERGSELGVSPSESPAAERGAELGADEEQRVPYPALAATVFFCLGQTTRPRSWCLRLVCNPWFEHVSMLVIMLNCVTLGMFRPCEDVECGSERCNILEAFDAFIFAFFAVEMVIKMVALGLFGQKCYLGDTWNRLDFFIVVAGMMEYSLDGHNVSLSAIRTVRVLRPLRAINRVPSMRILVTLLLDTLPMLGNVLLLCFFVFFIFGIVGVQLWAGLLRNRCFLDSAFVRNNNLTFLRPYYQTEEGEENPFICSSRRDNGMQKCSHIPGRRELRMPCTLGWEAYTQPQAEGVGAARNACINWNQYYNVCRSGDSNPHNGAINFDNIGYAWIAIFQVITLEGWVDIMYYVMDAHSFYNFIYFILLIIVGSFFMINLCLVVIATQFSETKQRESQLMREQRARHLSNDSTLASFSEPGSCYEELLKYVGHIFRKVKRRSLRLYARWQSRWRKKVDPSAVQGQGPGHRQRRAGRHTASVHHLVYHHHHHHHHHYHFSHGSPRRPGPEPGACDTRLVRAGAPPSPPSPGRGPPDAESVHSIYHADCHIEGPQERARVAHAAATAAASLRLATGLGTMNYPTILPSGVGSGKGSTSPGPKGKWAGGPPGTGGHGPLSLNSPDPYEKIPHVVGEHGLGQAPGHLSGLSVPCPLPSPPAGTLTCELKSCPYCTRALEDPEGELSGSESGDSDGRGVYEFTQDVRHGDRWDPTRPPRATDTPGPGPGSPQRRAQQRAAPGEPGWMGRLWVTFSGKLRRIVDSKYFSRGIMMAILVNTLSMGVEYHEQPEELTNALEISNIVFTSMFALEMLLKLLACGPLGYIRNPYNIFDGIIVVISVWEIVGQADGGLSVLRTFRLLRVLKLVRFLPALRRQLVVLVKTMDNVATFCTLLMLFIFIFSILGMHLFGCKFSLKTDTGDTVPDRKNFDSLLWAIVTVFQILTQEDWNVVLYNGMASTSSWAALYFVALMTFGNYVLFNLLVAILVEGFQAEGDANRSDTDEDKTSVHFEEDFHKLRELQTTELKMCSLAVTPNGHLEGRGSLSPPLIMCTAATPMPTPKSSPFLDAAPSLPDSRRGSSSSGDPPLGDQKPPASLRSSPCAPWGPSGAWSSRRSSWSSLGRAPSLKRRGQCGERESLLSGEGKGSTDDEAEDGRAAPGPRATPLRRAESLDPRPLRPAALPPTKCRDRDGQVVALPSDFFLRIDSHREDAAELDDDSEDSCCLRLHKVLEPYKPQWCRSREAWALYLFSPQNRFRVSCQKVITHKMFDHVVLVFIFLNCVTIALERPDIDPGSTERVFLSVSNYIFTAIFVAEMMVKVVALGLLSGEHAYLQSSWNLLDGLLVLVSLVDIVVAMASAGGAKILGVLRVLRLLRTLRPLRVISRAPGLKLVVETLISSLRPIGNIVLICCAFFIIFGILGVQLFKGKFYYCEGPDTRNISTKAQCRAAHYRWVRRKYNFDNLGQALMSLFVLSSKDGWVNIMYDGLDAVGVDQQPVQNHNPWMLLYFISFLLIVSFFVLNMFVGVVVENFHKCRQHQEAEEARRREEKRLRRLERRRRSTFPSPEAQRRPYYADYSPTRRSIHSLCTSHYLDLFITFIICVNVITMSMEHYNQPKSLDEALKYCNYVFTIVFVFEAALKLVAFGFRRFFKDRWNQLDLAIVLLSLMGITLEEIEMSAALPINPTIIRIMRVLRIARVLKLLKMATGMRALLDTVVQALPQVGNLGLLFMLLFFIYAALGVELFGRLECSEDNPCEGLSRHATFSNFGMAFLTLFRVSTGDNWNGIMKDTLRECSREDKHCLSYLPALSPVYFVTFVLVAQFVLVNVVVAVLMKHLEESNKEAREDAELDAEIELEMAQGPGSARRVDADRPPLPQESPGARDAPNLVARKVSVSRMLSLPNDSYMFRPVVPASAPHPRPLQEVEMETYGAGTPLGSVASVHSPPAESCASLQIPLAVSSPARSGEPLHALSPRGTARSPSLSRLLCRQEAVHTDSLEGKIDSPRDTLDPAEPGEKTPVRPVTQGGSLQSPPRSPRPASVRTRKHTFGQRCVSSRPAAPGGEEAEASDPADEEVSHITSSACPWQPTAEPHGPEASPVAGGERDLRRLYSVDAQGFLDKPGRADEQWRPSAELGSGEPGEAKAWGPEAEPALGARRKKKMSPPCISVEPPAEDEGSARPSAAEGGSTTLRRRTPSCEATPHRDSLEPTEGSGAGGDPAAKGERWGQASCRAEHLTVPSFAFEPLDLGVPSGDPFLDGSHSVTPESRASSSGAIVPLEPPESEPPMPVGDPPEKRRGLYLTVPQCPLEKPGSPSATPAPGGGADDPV

Take `CC(C)(C)CCN1CCC2(CC1)CC2N(CC1CC1)C(=O)c1cc(Cl)cc(Cl)c1` (stereo not shown) [Example 55, 3,5-Dichloro-N-(cyclopropylmethyl)-N-(6-(3,3-dimethylbutyl)-6-azaspiro[2.5]octan-1-yl)benzamide]: the concentration for half-maximal inhibition (IC50) worked out at 70 nM. As for `CC(C)CN1CCC2(CC1)CC2NC(=O)c1ccccc1` (stereo not shown) [Example 1, N-(6-Isobutyl-6-azaspiro[2.5]octan-1-yl)benzamide], the inhibition at 3 µM (HEK293, read-out: % inhibition at 3 μM) turned out to be 15.3%.

As to `CC(C)(C)NC(=O)CN1CCC(CNC(=O)CCc2cccc(Cl)c2)CC1` [Example 99, N-((1-(2-(tert-Butylamino)-2-oxoethyl)piperidin-4-yl)methyl)-3-(3-chlorophenyl)propanamide], 1 µM produced 75% inhibition under setting [1].

With `CC(C)(C)NC(=O)CN1CCC2(CC1)CC2NC(=O)c1ccc(Cl)c(Cl)c1` (stereo not shown) [Example 9, N-(6-(2-(tert-Butylamino)-2-oxoethyl)-6-azaspiro[2.5]octan-1-yl)-3,4-dichlorobenzamide], the IC50 worked out at 80 nM. Same read-out and setting: under `CC(C)NC(=O)CN1CCC2(CC1)CC2NC(=O)c1cc(F)cc(Cl)c1` (single isomer, unassigned) [Example 140, (R)-3-Chloro-5-fluoro-N-(6-(2-(isopropylamino)-2-oxoethyl)-6-azaspiro[2.5]octan-1-yl)benzamide or (S)-3-Chloro-5-fluoro-N-(6-(2-(isopropylamino)-2-oxoethyl)-6-azaspiro[2.5]octan-1-yl)benzamide] stands 520 nM. In the case of `O=C(CCc1ccc(Cl)c(Cl)c1)Nc1nnc(-c2ccc(Cl)s2)o1` [Example 120, N-(5-(5-Chlorothiophen-2-yl)-1,3,4-oxadiazol-2-yl)-3-(3,4-dichlorophenyl)propanamide], the inhibition at 1 µM under setting [1] was 9.2%.

For `O=C(NC1CC12CCN(CCc1ccc(C(F)(F)F)cc1)CC2)c1cc(Cl)cc(Cl)c1` (stereo not shown) [Example 43, 3,5-Dichloro-N-(6-(4-(trifluoromethyl)phenethyl)-6-azaspiro[2.5]octan-1-yl)benzamide], the IC50 amounted to 120 nM. Turning to `CC(C)(C)CCN1CCC2(CC1)CC2NC(=O)c1ccccc1` (stereo not shown) [Example 2, N-(6-(3,3-Dimethylbutyl)-6-azaspiro[2.5]octan-1-yl)benzamide], the inhibition at 3 µM under setting [2] amounted to 55.3%. Turning to `O=C(NC1CC12CCN(Cc1ccccc1)CC2)c1ccc(Cl)c(Cl)c1` (stereo not shown) [Example 10, N-(6-Benzyl-6-azaspiro[2.5]octan-1-yl)-3,4-dichlorobenzamide], the half-inhibitory concentration (IC50) was found to be 800 nM. `O=C(Cc1cccc(Cl)c1)Nc1nnc(-c2ccc(Cl)s2)o1` [Example 121, 2-(3-Chlorophenyl)-N-(5-(5-chlorothiophen-2-yl)-1,3,4-oxadiazol-2-yl)acetamide] showed an inhibition at 1 µM under setting [1] of 75%. Consider `O=C(CCc1cccc(Cl)c1)Nc1nnc(-c2ccccc2)o1` [Example 119, 3-(3-Chlorophenyl)-N-(5-phenyl-1,3,4-oxadiazol-2-yl)propanamide], for which, under setting [2], the inhibition at 3 µM was 5%.

Regarding `CC(C)(C)NC(=O)CN1CCC2(CC1)CC2CNC(=O)c1cc(Cl)cc(Cl)c1` (stereo not shown) [Example 87, N-((6-(2-(tert-Butylamino)-2-oxoethyl)-6-azaspiro[2.5]octan-1-yl)methyl)-3,5-dichlorobenzamide], the IC50 was 690 nM. For `CC(C)(C)C(=O)CN1CCC2(CC1)CC2NC(=O)c1cc(Cl)cc(Cl)c1` (stereo not shown) [Example 49, 3,5-Dichloro-N-(6-(3,3-dimethyl-2-oxobutyl)-6-azaspiro[2.5]octan-1-yl)benzamide], the IC50 came out at 160 nM. The compound `O=C(Nc1nnc(-c2ccc(Cl)s2)o1)c1ccccc1` [Example 117, N-(5-(5-Chlorothiophen-2-yl)-1,3,4-oxadiazol-2-yl)benzamide] showed an inhibition at 1 µM under setting [1] of 24%. Still for that read-out and setting: under `O=C(Nc1nnc(-c2ccccc2)o1)c1cnccn1` [Example 124, N-(5-Phenyl-1,3,4-oxadiazol-2-yl)pyrazine-2-carboxamide] stands 7.1%. Turning to `O=C(NC1CC12CCN(CCCC1CCOCC1)CC2)c1cc(Cl)cc(Cl)c1` (stereo not shown) [Example 48, 3,5-Dichloro-N-(6-(3-(tetrahydro-2H-pyran-4-yl)propyl)-6-azaspiro[2.5]octan-1-yl)benzamide], the IC50 is 260 nM. Regarding `O=C(CN1CCC2(CC1)CC2NC(=O)c1cc(Cl)cc(Cl)c1)c1ccc(C(F)(F)F)cc1` (stereo not shown) [Example 50, 3,5-Dichloro-N-(6-(2-oxo-2-(4-(trifluoromethyl)phenyl)ethyl)-6-azaspiro[2.5]octan-1-yl)benzamide], the IC50 stood at 80 nM. With `CC(C)(C)CCN1CCC2(CC1)CC2C(=O)Nc1cc(Cl)cc(Cl)c1` (stereo not shown) [Example 91, N-(3,5-Dichlorophenyl)-6-(3,3-dimethylbutyl)-6-azaspiro[2.5]octane-1-carboxamide], the IC50 was determined as 60 nM.

Take `CC(C)(C)CCN1CCC2(CC1)CC2NC(=O)C12CC3CC(CC(C3)C1)C2` (stereo not shown) [Example 30, N-[6-(3,3-Dimethylbutyl)-6-azaspiro[2.5]octan-1-yl]adamantane-1-carboxamide]: the IC50 amounted to 90 nM. The compound `CC(C)(C)CCN1CCC2(CC1)CC2NC(=O)c1cncc(C(F)(F)F)c1` (stereo not shown) [Example 26, N-(6-(3,3-dimethylbutyl)-6-azaspiro[2.5]octan-1-yl)-5-(trifluoromethyl)nicotinamide] came in with an inhibition at 1 µM under setting [1] of 64%. For `CN(C(=O)c1cc(Cl)cc(Cl)c1)C1CC12CCN(CCC(C)(C)C)CC2` (stereo not shown) [Example 54, 3,5-Dichloro-N-(6-(3,3-dimethylbutyl)-6-azaspiro[2.5]octan-1-yl)-N-methylbenzamide], the concentration for half-maximal inhibition (IC50) was 230 nM. On the same count and under the same terms, the result for `CC(C)(C)CCN1CCC2(CC1)CC2NC(=O)Cc1cc(C(F)(F)F)cc(C(F)(F)F)c1` (stereo not shown) [Example 31, 2-(3,5-Bis(trifluoromethyl)phenyl)-N-(6-(3,3-dimethylbutyl)-6-azaspiro[2.5]octan-1-yl)acetamide] reads 80 nM. For the compound `CC(C)(C)CCN1CCC2(CC1)CC2NC(=O)c1ccccc1Cl` (stereo not shown) [Example 20, 2-Chloro-N-(6-(3,3-dimethylbutyl)-6-azaspiro[2.5]octan-1-yl)benzamide], under setting [1], at 1 µM the inhibition was 37%.

Take `CC(C)(C)NC(=O)CN1CCC2(CC1)CC2C(=O)Nc1cc(Cl)cc(Cl)c1` (stereo not shown) [Example 90]: the IC50 was 130 nM. Still for that read-out and setting: the result for `O=C(NC1CC12CCN(CCc1ccccc1)CC2)c1cc(Cl)cc(Cl)c1` (stereo not shown) [Example 13, 3,5-Dichloro-N-(6-phenethyl-6-azaspiro[2.5]octan-1-yl)benzamide] reads 30 nM; that for `O=C(NC1CC12CCN(CCC1CCOCC1)CC2)c1cc(Cl)cc(Cl)c1` (stereo not shown) [Example 47, 3,5-Dichloro-N-(6-(2-(tetrahydro-2H-pyran-4-yl)ethyl)-6-azaspiro[2.5]octan-1-yl)benzamide], 160 nM. For `CC(C)(C)NC(=O)CN1CCC2(CC1)C[C@H]2C(=O)Nc1cc(F)cc(C(F)(F)F)c1` (single isomer, unassigned) [Example 133, (R)-6-(2-(tert-Butylamino)-2-oxoethyl)-N-(3-fluoro-5-(trifluoromethyl)phenyl)-6-azaspiro[2.5]octane-1-carboxamide or (S)-6-(2-(tert-Butylamino)-2-oxoethyl)-N-(3-fluoro-5-(trifluoromethyl)phenyl)-6-azaspiro[2.5]octane-1-carboxamide], the IC50 stood at 200 nM.

With `Cc1cc(C(=O)Nc2nnc(-c3ccccc3F)o2)no1` [Example 126, N-(5-(2-Fluorophenyl)-1,3,4-oxadiazol-2-yl)-5-methylisoxazole-3-carboxamide], under setting [1], the inhibition at 1 µM was 5.9%.

(Values after patent US10562857B2 (AFASCI, Inc., priority 2015, dated 2020).)
